How the values were obtained:
[1] = molecular target: T1, Human CD73 (amino acid residues 27-549) (Homo sapiens, UniProt P21589); experiment: CD73 enzymatic assay (luciferase-based indirect assay, CellTiter-Glo); type: biochemical; conditions: 0.4 nM CD73, 150 μM AMP, 1 hour at room temperature
T1 construct: Human CD73 (amino acid residues 27-549); His tag (N); made in house; host or cells: E. coli
T1 sequence (P21589 27-549): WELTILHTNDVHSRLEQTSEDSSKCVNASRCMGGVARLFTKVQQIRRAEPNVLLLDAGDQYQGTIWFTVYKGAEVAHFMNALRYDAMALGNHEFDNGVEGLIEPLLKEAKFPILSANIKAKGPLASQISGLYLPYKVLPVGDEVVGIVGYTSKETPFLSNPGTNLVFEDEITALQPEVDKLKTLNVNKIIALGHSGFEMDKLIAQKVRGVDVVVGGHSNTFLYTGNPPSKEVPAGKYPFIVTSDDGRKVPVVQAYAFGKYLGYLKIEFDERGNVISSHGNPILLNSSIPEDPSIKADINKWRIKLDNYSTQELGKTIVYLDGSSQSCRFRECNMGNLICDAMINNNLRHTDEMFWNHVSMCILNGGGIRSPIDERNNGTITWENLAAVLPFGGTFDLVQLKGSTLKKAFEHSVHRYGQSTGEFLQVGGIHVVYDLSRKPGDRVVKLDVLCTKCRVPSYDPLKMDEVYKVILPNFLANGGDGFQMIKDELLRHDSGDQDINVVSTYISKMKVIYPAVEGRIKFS
Method in brief: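 Luciferase-coupled readout: AMP left after CD73 turnover suppresses CellTiter-Glo signal (1 μM ATP final, 30 min RT). Reaction beforehand: 150 μM AMP, 0.4 nM E. coli-made His-tagged CD73 residues 27-549, test compound, HEPES pH 7.4 with Tween-20, 1 h RT. % inhibition fitted nonlinearly for IC50.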

human CD73 = molecular target: T2, human CD73 (Homo sapiens, UniProt P21589); experiment: Inhibitor activity against CD73 in cell based assay (CD73 expressing CHO-K1 cells); conditions: CHO-K1 cells expressing human CD73, 150 μM AMP, 4 hours of incubation; read-out: CHO-K1 CELL_VARIANT: CD73 IC50
T2 construct: expressed in transfected cells
T2 sequence (P21589 27-549): T1 sequence (P21589 27-549)
Method in brief: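 AMP (150 μM) was added alongside 8 titrated compound doses (maximum 10 μM, 1:3 steps) to CHO-K1 cells stably expressing human CD73. After 4 h, supernatant AMP was measured indirectly with CellTiter-Glo 2.0 plus 1 μM ATP (30 min, RT). % inhibition versus high and low controls was fitted nonlinearly for IC50.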

| IC50 [1] [µM] | IC50 (human CD73) [µM] | SMILES |
| --- | --- | --- |
| 0.001 to 10 | 0.001 to 10 | NC1CC=C(c2ccnc(O[C@@H]3CCN(c4cn[nH]c(=O)c4Cl)C3)c2)CC1 (stereo partly drawn) [P-0067, 5-((3R)-3-((4-(4-aminocyclohex-1-en-1-yl)pyridin-2-yl)oxy)pyrrolidin-1-yl)-4-chloropyridazin-3(2H)-one] |
| 0.001 to 10 | 0.001 to 10 | O=c1[nH]ncc(N2CC[C@@H](Oc3cc(C4CCNCC4)ccn3)C2)c1Cl [P-0071, (R)-4-chloro-5-(3-((4-(piperidin-4-yl)pyridin-2-yl)oxy)pyrrolidin-1-yl)pyridazin-3(2H)-one] |
| 0.001 to 10 | 0.001 to 10 | O=c1[nH]ncc(N2CC[C@@H](Oc3cc(C4CCOCC4)ccn3)C2)c1Cl [P-0072, (R)-4-chloro-5-(3-((4-(tetrahydro-2H-pyran-4-yl)pyridin-2-yl)oxy)pyrrolidin-1-yl)pyridazin-3(2H)-one] |
| 0.001 to 10 | 0.001 to 10 | O=c1[nH]ncc(N2CC[C@@H](Oc3cc(C4CCCC4)ccn3)C2)c1Cl [P-0073, (R)-4-chloro-5-(3-((4-cyclopentylpyridin-2-yl)oxy)pyrrolidin-1-yl)pyridazin-3(2H)-one] |
| 0.001 to 10 | 0.001 to 10 | N#CC1CCN(c2ccnc(O[C@@H]3CCN(c4cn[nH]c(=O)c4Cl)C3)c2)CC1 [P-0074, (R)-1-(2-((1-(5-chloro-6-oxo-1,6-dihydropyridazin-4-yl)pyrrolidin-3-yl)oxy)pyridin-4-yl)piperidine-4-carbonitrile] |
| 0.001 to 10 | 0.001 to 10 | O=c1[nH]ncc(N2CC[C@@H](Oc3cc(C4=CCNCC4)ccn3)C2)c1Cl [P-0075, (R)-4-chloro-5-(3-((1′,2′,3′,6′-tetrahydro-[4,4′-bipyridin]-2-yl)oxy)pyrrolidin-1-yl)pyridazin-3(2H)-one] |
| 0.001 to 10 | 0.001 to 10 | CC1(C)CCCN1c1ccnc(O[C@@H]2CCN(c3cn[nH]c(=O)c3Cl)C2)c1 [P-0079, (R)-4-chloro-5-(3-((4-(2,2-dimethylpyrrolidin-1-yl)pyridin-2-yl)oxy)pyrrolidin-1-yl)pyridazin-3(2H)-one] |
| 0.001 to 10 | 0.001 to 10 | O=c1[nH]ncc(N2CC[C@@H](Oc3cc(C4=CCCC4)ccn3)C2)c1Cl [P-0084, (R)-4-chloro-5-(3-((4-(cyclopent-1-en-1-yl)pyridin-2-yl)oxy)pyrrolidin-1-yl)pyridazin-3(2H)-one] |
| 0.001 to 10 | 0.001 to 10 | O=c1[nH]ncc(N2CC[C@@H](Oc3cc(C4CCCCC4)ccn3)C2)c1Cl [P-0085, (R)-4-chloro-5-(3-((4-cyclohexylpyridin-2-yl)oxy)pyrrolidin-1-yl)pyridazin-3(2H)-one] |

More lines, now with the values behind:

| SMILES | IC50 [1] [µM] | IC50 (human CD73) [µM] |
| --- | --- | --- |
| Cc1noc(C)c1-c1ccnc(O[C@@H]2CCN(c3cn[nH]c(=O)c3C#N)C2)c1 [P-0063, (R)-5-(3-((4-(3,5-dimethylisoxazol-4-yl)pyridin-2-yl)oxy)pyrrolidin-1-yl)-3-oxo-2,3-dihydropyridazine-4-carbonitrile] | 0.001 to 10 | 0.001 to 10 |
| Cc1nn(CC(O)CCCl)c(C)c1-c1ccnc(O[C@@H]2CCN(c3cnn(CCO)c(=O)c3Cl)C2)c1 (stereo partly drawn) [P-0064, 4-chloro-5-((3R)-3-((4-(1-(4-chloro-2-hydroxybutyl)-3,5-dimethyl-1H-pyrazol-4-yl)pyridin-2-yl)oxy)pyrrolidin-1-yl)-2-(2-hydroxyethyl)pyridazin-3(2H)-one] | 0.001 to 10 | 0.001 to 10 |
| Cc1nn(CC2(O)COC2)c(C)c1-c1ccnc(O[C@@H]2CCN(c3cn[nH]c(=O)c3Cl)C2)c1 [P-0065, (R)-4-chloro-5-(3-((4-(1-((3-hydroxyoxetan-3-yl)methyl)-3,5-dimethyl-1H-pyrazol-4-yl)pyridin-2-yl)oxy)pyrrolidin-1-yl)pyridazin-3(2H)-one] | 0.001 to 10 | 0.001 to 10 |
| Cc1noc(C)c1-c1ccnc(O[C@@H]2CCN(c3cn[nH]c(=O)c3Br)C2)c1 [P-0066, (R)-4-bromo-5-(3-((4-(3,5-dimethylisoxazol-4-yl)pyridin-2-yl)oxy)pyrrolidin-1-yl)pyridazin-3(2H)-one] | 0.001 to 10 | 0.001 to 10 |
| CC(=O)C1CC=C(c2ccnc(O[C@@H]3CCN(c4cn[nH]c(=O)c4Cl)C3)c2)CC1 (stereo partly drawn) [P-0068, 5-((3R)-3-((4-(4-acetylcyclohex-1-en-1-yl)pyridin-2-yl)oxy)pyrrolidin-1-yl)-4-chloropyridazin-3(2H)-one] | 0.001 to 10 | 0.001 to 10 |
| Cc1nn(C(CO)CCl)c(C)c1-c1ccnc(O[C@@H]2CCN(c3cn[nH]c(=O)c3Cl)C2)c1 (stereo partly drawn) [P-0069, 4-chloro-5-((3R)-3-((4-(1-(1-chloro-3-hydroxypropan-2-yl)-3,5-dimethyl-1H-pyrazol-4-yl)pyridin-2-yl)oxy)pyrrolidin-1-yl)pyridazin-3(2H)-one] | 0.001 to 10 | 0.001 to 10 |
| Cc1nn(C2COC2)c(C)c1-c1ccnc(O[C@@H]2CCN(c3cn[nH]c(=O)c3Cl)C2)c1 [P-0070, (R)-4-chloro-5-(3-((4-(3,5-dimethyl-1-(oxetan-3-yl)-1H-pyrazol-4-yl)pyridin-2-yl)oxy)pyrrolidin-1-yl)pyridazin-3(2H)-one] | 0.001 to 10 | 0.001 to 10 |
| Cc1nn(CCO)c(C)c1-c1ccnc(O[C@@H]2CCN(c3cn[nH]c(=O)c3Cl)C2)c1 [P-0076, (R)-4-chloro-5-(3-((4-(1-(2-hydroxyethyl)-3,5-dimethyl-1H-pyrazol-4-yl)pyridin-2-yl)oxy)pyrrolidin-1-yl)pyridazin-3(2H)-one] | 0.001 to 10 | 0.001 to 10 |
| CCn1nc(C)c(-c2ccnc(O[C@@H]3CCN(c4cn[nH]c(=O)c4Cl)C3)c2)c1C [P-0077, (R)-4-chloro-5-(3-((4-(1-ethyl-3,5-dimethyl-1H-pyrazol-4-yl)pyridin-2-yl)oxy)pyrrolidin-1-yl)pyridazin-3(2H)-one] | 0.001 to 10 | 0.001 to 10 |
| O=c1[nH]ncc(N2CC[C@@H](Oc3cc(C4=CCOCC4)ccn3)C2)c1Cl [P-0078, (R)-4-chloro-5-(3-((4-(3,6-dihydro-2H-pyran-4-yl)pyridin-2-yl)oxy)pyrrolidin-1-yl)pyridazin-3(2H)-one] | 0.001 to 10 | 0.001 to 10 |
| CC1(C)CNCCN1c1ccnc(O[C@@H]2CCN(c3cn[nH]c(=O)c3Cl)C2)c1 [P-0080, (R)-4-chloro-5-(3-((4-(2,2-dimethylpiperazin-1-yl)pyridin-2-yl)oxy)pyrrolidin-1-yl)pyridazin-3(2H)-one] | 0.001 to 10 | 10 to 100 |
| Cc1cc(S(C)(=O)=O)ccc1-c1ccnc(O[C@@H]2CCN(c3cn[nH]c(=O)c3Cl)C2)c1 [P-0081, (R)-4-chloro-5-(3-((4-(2-methyl-4-(methylsulfonyl)phenyl)pyridin-2-yl)oxy)pyrrolidin-1-yl)pyridazin-3(2H)-one] | 0.001 to 10 | 0.001 to 10 |
| O=c1[nH]ncc(N2CC[C@@H](Oc3cc(N4CCC5(CC4)COC5)ccn3)C2)c1Cl [P-0082, (R)-5-(3-((4-(2-oxa-7-azaspiro[3.5]nonan-7-yl)pyridin-2-yl)oxy)pyrrolidin-1-yl)-4-chloropyridazin-3(2H)-one] | 0.001 to 10 | 0.001 to 10 |
| O=c1[nH]ncc(N2CC[C@@H](Oc3cc(N4CCC(CO)(CCl)CC4)ccn3)C2)c1Cl [P-0083, (R)-4-chloro-5-(3-((4-(4-(chloromethyl)-4-(hydroxymethyl)piperidin-1-yl)pyridin-2-yl)oxy)pyrrolidin-1-yl)pyridazin-3(2H)-one] | 0.001 to 10 | 0.001 to 10 |
| Cc1nn(CC2CCO2)c(C)c1-c1ccnc(O[C@@H]2CCN(c3cn[nH]c(=O)c3Cl)C2)c1 (stereo partly drawn) [P-0086, 4-chloro-5-((3R)-3-((4-(3,5-dimethyl-1-(oxetan-2-ylmethyl)-1H-pyrazol-4-yl)pyridin-2-yl)oxy)pyrrolidin-1-yl)pyridazin-3(2H)-one] | 0.001 to 10 | 0.001 to 10 |
| Cc1nn(CC2COC2)c(C)c1-c1ccnc(O[C@@H]2CCN(c3cn[nH]c(=O)c3Cl)C2)c1 [P-0087, (R)-4-chloro-5-(3-((4-(3,5-dimethyl-1-(oxetan-3-ylmethyl)-1H-pyrazol-4-yl)pyridin-2-yl)oxy)pyrrolidin-1-yl)pyridazin-3(2H)-one] | 0.001 to 10 | 0.001 to 10 |
| Cc1nn(C(CO)CI)c(C)c1-c1ccnc(O[C@@H]2CCN(c3cn[nH]c(=O)c3Cl)C2)c1 (stereo partly drawn) [P-0088, 4-chloro-5-((3R)-3-((4-(1-(1-hydroxy-3-iodopropan-2-yl)-3,5-dimethyl-1H-pyrazol-4-yl)pyridin-2-yl)oxy)pyrrolidin-1-yl)pyridazin-3(2H)-one] | 0.001 to 10 | 0.001 to 10 |
| Cc1nn(C)c(C)c1-c1cc(O[C@@H]2CCN(c3cn[nH]c(=O)c3Cl)C2)nc(N)n1 [P-0089, (R)-5-(3-((2-amino-6-(1,3,5-trimethyl-1H-pyrazol-4-yl)pyrimidin-4-yl)oxy)pyrrolidin-1-yl)-4-chloropyridazin-3(2H)-one] | 0.001 to 10 | 0.001 to 10 |

From patent US12202818B2, “Compounds and methods for CD73 modulation and indications therefor” (Opna Bio SA, priority 2020, dated 2025)
